Here are results for 1 molecule from US10544126B2, “Sulfonyl piperidine derivatives and their use for treating prokineticin mediated diseases” (TAKEDA PHARMACEUTICAL COMPANY LIMITED, priority 2012, dated 2020).

The target in this assay is human PKR1 receptors (Homo sapiens (Human), UniProt Q8TCW9). In words: PKR1 antagonist assay: block of PK1-mediated intracellular calcium release (FLIPR). It counts as cell-based. Particulars: antagonist activity; RBL2H3 cells expressing human PKR1; stimulation with PK1 at EC80; calcium fluorescence. Here is the method:
Prokineticin receptor 1 (PKR1) antagonists may be functionally assessed by measurement of change in intracellular calcium levels induced by Gq mediated increase in inositol triphosphate (IP3) levels. The ability of a compound to block the intracellular release of calcium mediated by PK1 in RBL2H3 cells expressing human PKR1 receptors is determined as a measure of the compound's antagonist activity in vitro.
Approximately 10,000 cells per assay well are seeded in normal culture medium in a 384 well plate (Corning). […]
To test for antagonist activity, test compounds at a final concentration range between 0.32 nM-10 μM (diluted in assay buffer) are added to the assay wells and allowed to incubate for 10 minutes prior to stimulation with PK1. After incubation with test compounds the assay plate is placed in a FLIPR Tetra (Molecular Devices) and PK1 (diluted in assay buffer) is added at the determined EC80 concentration (final). Ligand-dependent changes in intracellular calcium levels are determined by measuring changes in fluorescence of the dye at […] following excitation at 485 nm.

The structures appear in SMILES notation.

human PKR1 receptors, sequence (Q8TCW9 whole entry): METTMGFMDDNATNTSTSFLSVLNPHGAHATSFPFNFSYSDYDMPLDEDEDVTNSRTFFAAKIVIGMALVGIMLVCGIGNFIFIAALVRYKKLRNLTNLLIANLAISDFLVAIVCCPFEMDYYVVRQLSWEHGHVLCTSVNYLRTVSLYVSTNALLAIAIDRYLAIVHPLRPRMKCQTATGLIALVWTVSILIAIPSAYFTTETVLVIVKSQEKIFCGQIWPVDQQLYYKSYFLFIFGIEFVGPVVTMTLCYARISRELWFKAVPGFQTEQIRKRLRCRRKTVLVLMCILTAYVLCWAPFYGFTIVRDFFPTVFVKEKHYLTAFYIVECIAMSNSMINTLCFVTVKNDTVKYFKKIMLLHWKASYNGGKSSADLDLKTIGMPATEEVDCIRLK

For the molecule `Cc1n[nH]c(C)c1S(=O)(=O)N1CCC(C(C#N)c2ccc(Cl)cc2F)CC1` (stereo not shown) [Example 92, 2-(4-Chloro-2-fluorophenyl)-2-(1-((3,5-dimethyl-1H-pyrazol-4-yl)sulfonyl)piperidin-4-yl)acetonitrile], the IC50 (usually the midpoint of a concentration-inhibition curve) was 1.85 µM.
